Test results published in patent US9133180B2, “Aurora and FLT3 kinases modulators” (SAREUM LIMITED, priority 2012, dated 2015).

Assays:
Type in all cases: cell-based
[1] = test system: HCT-116; assay: Anti-proliferative activity, Alamar Blue assay; conditions: Homo sapiens, 96 h exposure, read-out: HCT116 96 Hrs IC50
Protocol: The anti-proliferative activities of compounds of the invention are determined by measuring the ability of the compounds to inhibit the growth of the colorectal cancer derived cell-line HCT-116. Inhibition of cell growth is measured using the Alamar Blue assay (Nociari et al., Journal of Immunological Methods (1998) 213, 157-167). The method is based on the ability of viable cells to reduce resazurin to its fluorescent product resorufin. For each proliferation assay cells are plated onto 96 well plates and allowed to recover for 16 hours prior to the addition of inhibitor compounds for a further 96 hours. At the end of the incubation period 10% (v/v) Alamar Blue is added and incubated for a further 6 hours prior to determination of fluorescent product at Excitation 535 nm and Emission 590 nm. All cell lines are obtained from ECACC (European Collection of cell Cultures).
The activities of the compounds of the invention against the human colorectal cancer cell line HCT-116 are shown the in the table below. The column headed HCT-116 96 Hrs refers to the concentration of compound required to reduce the proliferation of HCT-116 cells by 50% following a 96 h period of exposure. The column headed [Polyploidy] refers to the lowest concentration of compound required to produce a distinct polyploid phenotype, believed to be due to Aurora B inhibition.

[2] = test system: CCRF-CEM; assay: CellTiter-Blue assay, haematological cell line; conditions: Homo sapiens, 96 h; CCRF-CEM (ALL), four days treatment
Protocol: (§1) The compounds of Examples 2 and 7 were tested against a range of human haematological cell lines using the CellTiter-Blue® assay (#G8081, Promega) according to the manufacturer's instructions. Cells were harvested from exponential phase cultures, counted and plated in 96 well flat-bottom microtiter plates at a cell density of 20,000-90,000 cells/well. After a 24 h recovery period to allow the cells to resume exponential growth, 10 μl of culture medium (four control wells/plate) or of culture medium with test compound were added. The compounds were applied in duplicates at ten concentrations and treatment continued for four days. After treatment of cells, 10 μl/well CellTiter-Blue® reagent was added. Following an incubation period of up to four hours, fluorescence (FU) was measured by using the EnVision Xcite multilabel reader (excitation λ=531 nm, emission λ=615 nm). The compounds were tested in two to four independent experiments for each cell line.

[3] = test system: EM-2; assay: CellTiter-Blue assay, haematological cell line; conditions: Homo sapiens, 96 h; EM-2 (CML), four days treatment
Protocol: as §1

[4] = test system: HL-60; assay: CellTiter-Blue assay, haematological cell line; conditions: Homo sapiens, 96 h; HL-60 (AML), four days treatment
Protocol: as §1

[5] = test system: IM-9; assay: CellTiter-Blue assay, haematological cell line; conditions: Homo sapiens, 96 h; IM-9 (MM), four days treatment
Protocol: as §1

[6] = test system: JURKAT; assay: CellTiter-Blue assay, haematological cell line; conditions: Homo sapiens, 96 h; JURKAT (ALL), four days treatment
Protocol: as §1

[7] = test system: JURL-MK1; assay: CellTiter-Blue assay, haematological cell line; conditions: Homo sapiens, 96 h; JURL-MK1 (CML), four days treatment
Protocol: as §1

[8] = test system: K-562; assay: CellTiter-Blue assay, haematological cell line; conditions: Homo sapiens, K562, 96 h; K-562 (CML), four days treatment
Protocol: as §1

[9] = test system: KCL-22; assay: CellTiter-Blue assay, haematological cell line; conditions: Homo sapiens, 96 h; KCL-22 (CML), four days treatment
Protocol: as §1

[10] = test system: KG-1; assay: CellTiter-Blue assay, haematological cell line; conditions: Homo sapiens, 96 h; KG-1 (AML), four days treatment
Protocol: as §1

[11] = test system: KM-H2; assay: CellTiter-Blue assay, haematological cell line; conditions: Homo sapiens, 96 h; KM-H2 (HL), four days treatment
Protocol: as §1

[12] = test system: LP-1; assay: CellTiter-Blue assay, haematological cell line; conditions: Homo sapiens, 96 h; LP-1 (MM), four days treatment
Protocol: as §1

[13] = test system: MEG-01; assay: CellTiter-Blue assay, haematological cell line; conditions: Homo sapiens, 96 h; MEG-01 (CML), four days treatment
Protocol: as §1

[14] = test system: MOLT-4; assay: CellTiter-Blue assay, haematological cell line; conditions: Homo sapiens, 96 h; MOLT-4 (ALL), four days treatment
Protocol: as §1

[15] = test system: MV4-11; assay: CellTiter-Blue assay, haematological cell line; conditions: Homo sapiens, 96 h; MV4-11 (AML), four days treatment
Protocol: as §1

[16] = test system: NCI-H929; assay: CellTiter-Blue assay, haematological cell line; conditions: Homo sapiens, 96 h; NCI-H929 (MM), four days treatment
Protocol: as §1

[17] = test system: NOMO-1; assay: CellTiter-Blue assay, haematological cell line; conditions: Homo sapiens, 96 h; NOMO-1 (AML), four days treatment
Protocol: as §1

[18] = test system: OCI-AML2; assay: CellTiter-Blue assay, haematological cell line; conditions: Homo sapiens, 96 h; OCI-AML2 (AML), four days treatment
Protocol: as §1

[19] = test system: PL-21; assay: CellTiter-Blue assay, haematological cell line; conditions: Homo sapiens, 96 h; PL-21 (AML), four days treatment
Protocol: as §1

[20] = test system: RAJI; assay: CellTiter-Blue assay, haematological cell line; conditions: Homo sapiens, 96 h; RAJI (NHL), four days treatment
Protocol: as §1

[21] = test system: RPMI8226; assay: CellTiter-Blue assay, haematological cell line; conditions: Homo sapiens, RPMI-8226, 96 h; RPMI8226 (MM), four days treatment

Row | SMILES | IC50 [1] | IC50 [2] | IC50 [3] | IC50 [4] | IC50 [5] | IC50 [6] | IC50 [7] | IC50 [8] | IC50 [9] | IC50 [10] | IC50 [11] | IC50 [12] | IC50 [13] | IC50 [14] | IC50 [15] | IC50 [16] | IC50 [17] | IC50 [18] | IC50 [19] | IC50 [20] | other results
1 | Cc1ccc2[nH]ccc2c1-c1nc(C(N)=O)c(-c2ccc(N3CCNC(C)(C)C3)cc2)o1 [Example 2, 2-(5-Methyl-1H-Indol-4-yl)-5-[4-(3,3-dimethyl-piperazin-1-yl)-phenyl]-oxazole-4-carboxylic acid amide] | 0.074 µM | 0.05 µM | 0.604 µM | 0.064 µM | 0.07 µM | 0.091 µM | 0.141 µM | 0.326 µM | 0.417 µM | 0.076 µM | 0.189 µM | 1.07 µM | 0.633 µM | 0.048 µM | 0.009 µM | 0.852 µM | 0.095 µM | 0.103 µM | 0.099 µM | 2.85 µM | IC50 [21]: 2.14 µM
2 | Cc1cc(F)c2[nH]ccc2c1-c1nc(C(N)=O)c(-c2ccc(N3CCNC(C)(C)C3)cc2)o1 [Example 7, 2-(5-Methyl-7-Fluoro-1H-Indol-4-yl)-5-[4-(3,3-dimethyl-piperazin-1-yl)-phenyl]-oxazole-4-carboxylic acid amide] | 0.12 µM | 0.046 µM | 0.493 µM | 0.052 µM | 0.07 µM | 0.093 µM | 0.098 µM | 0.219 µM | 0.366 µM | 0.137 µM | 0.137 µM | 1.01 µM | 0.468 µM | 0.045 µM | 0.009 µM | 1.4 µM | 0.061 µM | 0.091 µM | 0.091 µM | 1.8 µM | –
